Experimental findings from US9266867B2, “Piperidinyl monocarboxylic acids as S1P1 receptor agonists” (BIOPROJET, priority 2011, dated 2016) are described below.

The structures appear in SMILES notation. Where a name gives a salt, the structure may show the parent alone.

EDG-1, sequence (P21453 whole entry): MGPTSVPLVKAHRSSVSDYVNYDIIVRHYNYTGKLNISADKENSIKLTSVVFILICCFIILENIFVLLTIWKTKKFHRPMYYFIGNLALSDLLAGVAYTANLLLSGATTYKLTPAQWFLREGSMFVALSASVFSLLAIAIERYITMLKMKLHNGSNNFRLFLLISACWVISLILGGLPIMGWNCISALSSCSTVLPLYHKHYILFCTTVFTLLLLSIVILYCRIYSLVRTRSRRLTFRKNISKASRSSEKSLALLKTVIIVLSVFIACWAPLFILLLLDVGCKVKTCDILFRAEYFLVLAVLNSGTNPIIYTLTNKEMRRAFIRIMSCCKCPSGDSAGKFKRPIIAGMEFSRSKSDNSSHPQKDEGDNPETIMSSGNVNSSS

One assay deals with EDG-1 (Homo sapiens, UniProt P21453). Put plainly: 35S-GTPγS binding assay, EDG1 (S1P1). In kind it is biochemical. Further details: expressed in transfected cells. The note with it: Table 1b; read-out: EDG1 EC50. How it is done:
a) 35S-GTPγS Binding Assay GTP-γ-^35S binding was performed using […]15 μg protein of cell membranes suspended in 50 mM tris-HCl pH 7.5 containing 10 mM MgCl2, 100 mM NaCl and 10 μM GDP. The radioligand was 0.025 nM [^35S] GTP-γ-S and non specific binding determined in the presence of 10 μM non-radioactive GTP-γ-S. […] The maximal stimulation elicited by S1P was taken as a reference to define full or partial agonism and calculate the intrinsic activity (i.a.) of compounds.
In general, EC50 refers to the midpoint of the concentration-response curve. With `CC(C)Cc1ccc(-c2nc(-c3ccc(CN4CCC(Cc5ccncc5)(C(=O)O)CC4)cc3)no2)cc1Cl` [Example 43, 1-{4-[5-(3-Chloro-4-isobutyl-phenyl)-[1,2,4]-oxadiazol-3-yl]-benzyl}-4-pyridin-4-ylmethyl-piperidine-4-carboxylic acid tert-butyl amine salt], the EC50 was less than 1 nM.
The same measure, in the same setting: the result for `CC(C)Oc1ccc(-c2nc(-c3ccc(CN4CCC(C)(C(=O)O)CC4)cc3)no2)cc1Cl` [Example 44, 1-{4-[5-(3-Chloro-4-isopropoxy-phenyl)-[1,2,4]-oxadiazol-3-yl]-benzyl}-4-methyl-piperidine-4-carboxylic acid tert-butyl amine salt] reads less than 10 nM.
Still for that read-out and setting: the value for `CC1(C(=O)O)CCN(Cc2ccc(-c3noc(-c4ccc(C(C)(C)C)c(Cl)c4)n3)cc2)CC1` [Example 45, 1-{4-[5-(4-tert-Butyl-3-chloro-phenyl)-[1,2,4]-oxadiazol-3-yl]-benzyl}-4-methyl-piperidine-4-carboxylic acid tert-butyl amine salt] was less than 10 nM.
Same read-out and setting: the result for `CCCc1ccc(-c2nc(-c3ccc(CN4CCC(C)(C(=O)O)CC4)cc3)no2)cc1Cl` [Example 46, 1-{4-[5-(3-Chloro-4-propyl-phenyl)-[1,2,4]-oxadiazol-3-yl]-benzyl}-4-methyl-piperidine-4-carboxylic acid tert-butyl amine salt] reads less than 1 nM; that for `COCCOCC1(C(=O)O)CCN(Cc2ccc(-c3noc(-c4ccc(OC(C)C)c(Cl)c4)n3)cc2)CC1` [Example 47, 1-{4-[5-(3-Chloro-4-isopropoxy-phenyl)-[1,2,4]-oxadiazol-3-yl]-benzyl}-4-(2-methoxy-ethoxymethyl)-piperidine-4-carboxylic acid tert-butyl amine salt], less than 1 nM; that for `CCC1(C(=O)O)CCN(Cc2ccc(-c3noc(-c4ccc(OC(C)C)c(Cl)c4)n3)cc2)CC1` [Example 48, 1-{4-[5-(3-Chloro-4-isopropoxy-phenyl)-[1,2,4]-oxadiazol-3-yl]-benzyl}-4-ethyl-piperidine-4-carboxylic acid tert-butyl amine salt], less than 10 nM.
`C=CCC1(C(=O)O)CCN(Cc2ccc(-c3noc(-c4ccc(OC(C)C)c(Cl)c4)n3)cc2)CC1` [Example 49, 4-Allyl-1-{4-[5-(3-chloro-4-isopropoxy-phenyl)-[1,2,4]-oxadiazol-3-yl]-benzyl}-piperidine-4-carboxylic acid tert-butyl amine salt]: the EC50 is less than 1 nM.
The same measure, in the same setting: the value for `O=C(O)C1(Cc2ccccn2)CCN(Cc2ccc(-c3noc(-c4ccc(-c5ccccc5)c(Cl)c4)n3)cc2)CC1` [Example 50, 1-{4-[5-(2-Chloro-biphenyl-4-yl)-[1,2,4]-oxadiazol-3-yl]-benzyl}-4-pyridin-2-ylmethyl-piperidine-4-carboxylic acid tert-butyl amine salt] was less than 1 nM.
Still for that read-out and setting: the value for `COc1ccc(CC2(C(=O)O)CCN(Cc3ccc(-c4noc(-c5ccc(-c6ccccc6)c(Cl)c5)n4)cc3)CC2)cc1` [Example 51, 1-{4-[5-(2-Chloro-biphenyl-4-yl)-[1,2,4]-oxadiazol-3-yl]-benzyl}-4-(4-methoxy-benzyl)-piperidine-4-carboxylic acid tert-butyl amine salt] was less than 1 nM; that for `O=C(O)C1(Cc2ccc(F)cc2)CCN(Cc2ccc(-c3noc(-c4ccc(-c5ccccc5)c(Cl)c4)n3)cc2)CC1` [Example 52, 1-{4-[5-(2-Chloro-biphenyl-4-yl)-[1,2,4]-oxadiazol-3-yl]-benzyl}-4-(4-fluoro-benzyl)-piperidine-4-carboxylic acid tert-butyl amine salt] was less than 1 nM.
Regarding `COc1ccc(CC2(C(=O)O)CCN(Cc3ccc(-c4noc(-c5ccc(C6CCCCC6)c(Cl)c5)n4)cc3)CC2)cc1` [Example 53, 1-{4-[5-(3-Chloro-4-cyclohexylphenyl)-[1,2,4]-oxadiazol-3-yl]-benzyl}-4-(4-methoxy-benzyl)-piperidine-4-carboxylic acid tert-butyl amine salt], the EC50 was less than 1 nM.
Regarding `CCC1(C(=O)O)CCN(Cc2ccc(-c3noc(-c4ccc(C5CCCCC5)c(Cl)c4)n3)cc2)CC1` [Example 54, 1-{4-[5-(3-Chloro-4-cyclohexylphenyl)-[1,2,4]-oxadiazol-3-yl]-benzyl}-4-ethyl-piperidine-4-carboxylic acid tert-butyl amine salt], the EC50 is less than 1 nM.
As for `O=C(O)C1(Cc2ccccc2)CCN(Cc2ccc(-c3noc(-c4ccc(-c5ccccc5)c(Cl)c4)n3)cc2)CC1` [Example 55, 4-Benzyl-1-{4-[5-(2-chloro-biphenyl-4-yl)-[1,2,4]-oxadiazol-3-yl]-benzyl}-piperidine-4-carboxylic acid tert-butyl amine salt], the EC50 was less than 1 nM.
The same measure, in the same setting: the value for `O=C(O)C1(Cc2ccccn2)CCN(Cc2ccc(-c3noc(-c4ccc(C5CCCCC5)c(Cl)c4)n3)cc2)CC1` [Example 56, 1-{4-[5-(3-Chloro-4-cyclohexyl-phenyl)-[1,2,4]-oxadiazol-3-yl]-benzyl}-4-pyridin-2-ylmethyl-piperidine-4-carboxylic acid tert-butyl amine salt] was less than 1 nM; that for `COCC1(C(=O)O)CCN(Cc2ccc(-c3noc(-c4ccc(OC(C)C)c(Cl)c4)n3)cc2)CC1` [Example 57, 1-{4-[5-(3-Chloro-4-isopropoxy-phenyl)-[1,2,4]-oxadiazol-3-yl]-benzyl}-4-methoxymethyl-piperidine-4-carboxylic acid tert-butyl amine salt] was less than 10 nM.
Still for that read-out and setting: the result for `O=C(O)C1(Cc2cccnc2)CCN(Cc2ccc(-c3noc(-c4ccc(-c5ccccc5)c(Cl)c4)n3)cc2)CC1` [Example 58, 1-{4-[5-(2-Chloro-biphenyl-4-yl)-[1,2,4]-oxadiazol-3-yl]-benzyl}-4-pyridin-3-ylmethyl-piperidine-4-carboxylic acid tert-butyl amine salt] reads less than 1 nM.
Same read-out and setting: the result for `CCOCCOCC1(C(=O)O)CCN(Cc2ccc(-c3noc(-c4ccc(CC(C)C)c(Cl)c4)n3)cc2)CC1` [Example 59, 1-{4-[5-(3-Chloro-4-isobutyl-phenyl)-[1,2,4]-oxadiazol-3-yl]-benzyl}-4-(2-ethoxy-ethoxymethyl)-piperidine-4-carboxylic acid tert-butyl amine salt] reads less than 1 nM.
With `CC(C)Cc1ccc(-c2nc(-c3ccc(CN4CCC(COC(C)C)(C(=O)O)CC4)cc3)no2)cc1Cl` [Example 60, 1-{4-[5-(3-Chloro-4-isobutyl-phenyl)-[1,2,4]-oxadiazol-3-yl]-benzyl}-4-isopropoxy methyl-piperidine-4-carboxylic acid tert-butyl amine salt], the EC50 is less than 1 nM.
Take `CC(C)Cc1ccc(-c2nc(-c3ccc(CN4CCC(COC5CCCC5)(C(=O)O)CC4)cc3)no2)cc1Cl` [Example 61, 1-{4-[5-(3-Chloro-4-isobutyl-phenyl)-[1,2,4]-oxadiazol-3-yl]-benzyl}-4-cyclopentyloxymethyl-piperidine-4-carboxylic acid tert-butyl amine salt]: the concentration giving a half-maximal response (EC50) is less than 1 nM.
Still for that read-out and setting: the value for `CC(C)Cc1ccc(-c2nc(-c3ccc(CN4CCC(Cc5cccs5)(C(=O)O)CC4)cc3)no2)cc1Cl` [Example 62, 1-{4-[5-(3-Chloro-4-isobutyl-phenyl)-[1,2,4]-oxadiazol-3-yl]-benzyl}-4-thiophen-2-ylmethyl-piperidine-4-carboxylic acid tert-butyl amine salt] was less than 1 nM; that for `CC(C)Cc1ccc(-c2nc(-c3ccc(CN4CCC(CC5CC5)(C(=O)O)CC4)cc3)no2)cc1Cl` [Example 63, 1-{4-[5-(3-Chloro-4-isobutyl-phenyl)-[1,2,4]-oxadiazol-3-yl]-benzyl}-4-cyclopropylmethyl-piperidine-4-carboxylic acid tert-butyl amine salt] was less than 1 nM.
Consider `CC(C)Cc1ccc(-c2nc(-c3ccc(CN4CCC(CCN5CCOCC5)(C(=O)O)CC4)cc3)no2)cc1Cl` [Example 64, 1-{4-[5-(3-Chloro-4-isobutyl-phenyl)-[1,2,4]-oxadiazol-3-yl]-benzyl}-4-(2-morpholin-4-yl-ethyl)-piperidine-4-carboxylic acid], for which the EC50 is less than 10 nM.
For `CC(C)Cc1ccc(-c2nc(-c3ccc(CN4CCC(CCCN5CCCCC5)(C(=O)O)CC4)cc3)no2)cc1Cl` [Example 65, 1-{4-[5-(3-Chloro-4-isobutyl-phenyl)-[1,2,4]-oxadiazol-3-yl]-benzyl}-4-(3-piperidin-1-yl-propyl)-piperidine-4-carboxylic acid tert-butyl amine salt], the EC50 was less than 10 nM.
Regarding `CC(C)Cc1ccc(-c2nc(-c3ccc(CN4CCC(CCCN5CCCC5)(C(=O)O)CC4)cc3)no2)cc1Cl` [Example 66, 1-{4-[5-(3-Chloro-4-isobutyl-phenyl)-[1,2,4]-oxadiazol-3-yl]-benzyl}-4-(3-pyrrolidin-1-yl-propyl)-piperidine-4-carboxylic acid tert-butyl amine salt], the EC50 was less than 10 nM.

Staying with this assay, now noted: comparative examples table; read-out: EDG1 EC50.
With `O=C(O)C1CCN(Cc2ccc(-c3noc(-c4ccc(-c5ccccc5)c(F)c4)n3)cc2)CC1` [compound 1], the EC50 was in the range of 11.7 to 19.8 nM.

The next assay has as its system circulating lymphocytes. The assay can be described thus: Assessment of lymphopenia in rats. The note with it: 1 mpk p.o., 8 Hrs. Format: in vivo. As for the experimental part:
b) Assessment of Lymphopenia
Lymphopenia was assessed in vivo. Experiments were done in non-fasted/fasted Swiss mice and/or: Sprague Dawley rats, Wistar rats, Beagle dogs, Cynomolgus monkeys. Compounds were administered orally in suspension in carboxymethyl-cellulose 0.5-1% in water (W/V). Blood was taken on anesthetized/non anaesthetized animal (4% isoflurane) and samples collected in EDTA-containing vacuum tubes from 1 h 30 to 72 hours post administration for lymphopenia measurement.
After 10 minutes stirring, cells were counted using ABC Vet haemocytometer (Scil vet animal Care) for rodent and dog or ADVIA 120 hematology analyzer for monkeys. Pharmacodynamic effect was measured by the decrease in circulating lymphocytes by test item treatment in comparison with haematological parameters of control animals or versus predosing in the same animals.
As for `O=C(O)C1CCN(Cc2ccc(-c3noc(-c4ccc(-c5ccccc5)c(F)c4)n3)cc2)CC1` [compound 1], the “Lymphopenia in rats % lymphopenia at 1 mpk/p.o dose 8 Hrs” value came to 18%.

Staying with this assay, now noted: 1 mpk p.o., 24 Hrs.
On to `O=C(O)C1CCN(Cc2ccc(-c3noc(-c4ccc(-c5ccccc5)c(F)c4)n3)cc2)CC1` [compound 1], for which the “Lymphopenia in rats % lymphopenia at 1 mpk/p.o dose 24 Hrs” value is listed as −54%.
